In patent publication US9890147B2 (BAYER PHARMA AKTIENGESELLSCHAFT, priority 2012, dated 2018) one finds IC50 data, which are given here for 17 compounds.

Some results are limits rather than exact numbers.

Experiment [1] relates to MV4-11 cells. Nature of the experiment: Cell proliferation assay (alamarBlue), MV4-11. The note with it: Homo sapiens, 72 hours incubation, inhibition of cell proliferation. Type of experiment: cell-based. The method, then:
(§1) In accordance with the invention, the capability of the substances to inhibit cell proliferation was determined Cell viability was determined using the alamarBlue® reagent (Invitrogen) in a Victor X3 Multilabel Reader (Perkin Elmer). The excitation wavelength was 530 nm and the emission wavelenth […].
The MV4-11 cells (ATCC, CRL 9591) were sown at a concentration of 5000 cells/well in 100 μl growth medium (RPMI1640, 10% FCS) on 96-well microtitre plates.
(§2) After an overnight incubation at 37° C., the fluorescence values (CI values) were determined. The plates were then treated with various substance dilutions (1E-5 M, 3E-6 M, 1E-6M, 3E-7 M, 1E-7 M, 3E-8 M, 1E-8 M) and incubated at 37° C. for 72 (MV4-11-, LOX-IMVI cells), 96 (MOLM-13-, B16F10-, MDA-MB-431-, Caov-3 cells), 120 (MOLP-8-, KMS-12-PE cells) or 168 (LAPC-4 cells) hours. The fluorescence values (CO values) were then determined. For the data analysis, the CI values were subtracted from the CO values and the results were compared between cells treated with different dilutions of the substance or with buffer solution only. These were used to calculate the IC 50 values (substance concentration required for 50% inhibition of cell proliferation).

Experiment [2] has as its system KMS-12-PE cells. Nature of the experiment: Cell proliferation assay (alamarBlue), KMS-12-PE. Type of experiment: cell-based. Particulars: Homo sapiens, 120 hours incubation, inhibition of cell proliferation. How it is done: as §1
The KMS-12-PE cells (DSMZ, ACC 606) were sown at a concentration of 4000 cells/well in 100 μl growth medium (RPMI1640, 20% FCS) on 96-well microtitre plates.
as §2
(In general: The colour change of resazurin is a common sign of viable cells or microbes.)

Experiment [3] has as its system MOLP-8 cells. Nature of the experiment: Cell proliferation assay (alamarBlue), MOLP-8. Type of experiment: cell-based. Particulars: Homo sapiens, 120 hours incubation, inhibition of cell proliferation. The method, then:
as §1
The MOLP-8 cells (DSMZ, ACC 569) were sown at a concentration of 4000 cells/well in 100 μl growth medium (RPMI1640, 20% FCS) on 96-well microtitre plates.
as §2

For experiment [4], the system named is Caov-3 cells. In words: Cell proliferation assay (alamarBlue), Caov-3. Type of experiment: cell-based. Particulars: Homo sapiens; inhibition of cell proliferation, Caov-3 (ovarian carcinoma), 96 hours. The method, then: as §1
The MDA-MB-231 cells (DSMZ, ACC 732) were sown at a concentration of 4000 cells/well in 100 μl growth medium (DMEM/Ham's F12 medium, 10% FCS) on 96-well microtitre plates. The Caov-3 cells (ATCC, HTB-75) were sown at a concentration of 2000 cells/well in 100 μl growth medium (MEM Earle's medium, 10% FCS) on 96-well microtitre plates.
as §2

Experiment [5] addresses T1, BRD4 (BD1) (Homo sapiens, UniProt O60885).
T1 construct: with relatively long constructs also being possible, preferably amino acids 44-168; made in house; host or cells: E. coli
Nature of the experiment: Binding assay BRD4/acetylated peptide H4 (TR-FRET protein-protein interaction assay). A digest of the protocol:
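Displacement of biotin-Ac-H4 peptide from His6-tagged BRD4(BD1), final usually 10 nM, read as Eu-streptavidin to anti-His-XL665 TR-FRET (665/620 nm). Compounds tested at 11 doses up to 20 μM in duplicate, pH 7.5 HEPES, 22 °C then 4 °C incubation; IC50 by 4-parameter regression.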
In general terms: In TR-FRET formats the signal depends on donor and acceptor labels being close together.

Experiment [6] deals with MOLM-13 cells. In words: Cell proliferation assay (alamarBlue), MOLM-13. Type of experiment: cell-based. Particulars: Homo sapiens, 96 hours incubation, inhibition of cell proliferation. In a few lines:
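IC50 = concentration giving 50% growth inhibition relative to buffer-treated cells, after subtracting baseline fluorescence taken before dosing. Compound applied at 1E-5 to 1E-8 M for 96 h at 37 °C in RPMI1640 with 10% FCS; alamarBlue signal at 530/590 nm.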

The test system of experiment [7] is LOX-IMVI cells. Nature of the experiment: Cell proliferation assay (alamarBlue), LOX-IMVI. Type of experiment: cell-based. Particulars: Homo sapiens, 72 hours incubation, inhibition of cell proliferation. The method, then: as §1
The LOX-IMVI cells (NCI-60) were sown at a concentration of 1000 cells/well in 100 μl growth medium (RPMI1640, 10% FCS) on 96-well microtitre plates.
as §2

Broadly, the IC50 is the concentration needed to halve the response being measured. Low values mean greater potency in that assay, high ones weaker potency in that assay. Turning to `CNC(=O)N1N=C(c2ccc(N3CCCCC3)cc2)c2cc(OC)c(OC)cc2CC1C` (racemic) [Example 139, (±)-7,8-dimethoxy-N,4-dimethyl-1-[4-(piperidin-1-yl)phenyl]-4,5-dihydro-3H-2,3-benzodiazepine-3-carboxamide], the half-maximal inhibitory concentration (IC50) in experiment [1] turned out to be 130 nM; in experiment [2], 110 nM; in experiment [3] it was 130 nM; in experiment [4], 310 nM; in experiment [5], 40 nM; in experiment [6], 210 nM. For the same compound, in experiment [7], the half-inhibitory concentration (IC50) is 380 nM.
Turning to `CNC(=O)N1N=C(c2ccc(-c3cccnc3C(F)(F)F)cc2)c2cc(OC)c(OC)cc2CC1C` (racemic) [Example 48, (±)-7,8-dimethoxy-N,4-dimethyl-1-{4-[2-(trifluoromethyl)pyridin-3-yl]phenyl}-4,5-dihydro-3H-2,3-benzodiazepine-3-carboxamide], the IC50 worked out at 220 nM in experiment [1]; 260 nM in experiment [2]; 250 nM in experiment [3]; 470 nM in experiment [4]; 110 nM in experiment [5]; 190 nM in experiment [6]. In experiment [7], this compound registered an IC50 of 650 nM.
Consider `CNC(=O)N1N=C(c2ccc(-c3c(C)noc3C)cc2)c2cc(O)ccc2CC1C` (racemic) [Example 168, (±)-1-[4-(3,5-Dimethylisoxazol-4-yl)phenyl]-8-hydroxy-N,4-dimethyl-4,5-dihydro-3H-2,3-benzodiazepine-3-carboxamide], for which the IC50 was 220 nM in experiment [1], 110 nM in experiment [5] and 390 nM in experiment [6].
With `CNC(=O)N1N=C(c2ccc(-n3nc(-c4ccccc4)cc3C3CC3)cc2)c2cc(OC)c(OC)cc2C[C@@H]1C` [Example 148.1, (4S)-1-[4-(5-cyclopropyl-3-phenyl-1H-pyrazol-1-yl)phenyl]-7,8-dimethoxy-N,4-dimethyl-4,5-dihydro-3H-2,3-benzodiazepine-3-carboxamide], the IC50 in experiment [1] was 50 nM; in experiment [2] it was 50 nM; in experiment [3] it was 50 nM; in experiment [4] it was 130 nM; in experiment [5], 30 nM; in experiment [6], 80 nM. This compound also showed a half-maximal inhibitory concentration (IC50) in experiment [7] of 90 nM.
For the compound `CNC(=O)N1N=C(c2ccc(Cl)cc2)c2cc(-n3nc(C)cc3C)ccc2CC1C` (racemic) [Example 174, (±)-1-(4-Chlorophenyl)-8-(3,5-dimethyl-1H-pyrazol-1-yl)-N,4-dimethyl-4,5-dihydro-3H-2,3-benzodiazepine-3-carboxamide], the half-inhibitory concentration (IC50) in experiment [3] was 2030 nM; in experiment [5], 250 nM; in experiment [6] it was 2340 nM.
As for `CNC(=O)N1N=C(c2ccc(-c3c(C)noc3C)cc2)c2cc(OCCCN3CCOCC3)ccc2CC1C` (racemic) [Example 169, (±)-1-[4-(3,5-Dimethylisoxazol-4-yl)phenyl]-N,4-dimethyl-8-[3-(morpholin-4-yl)propoxy]-4,5-dihydro-3H-2,3-benzodiazepine-3-carboxamide], the half-inhibitory concentration (IC50) worked out at 120 nM in experiment [2]; 120 nM in experiment [3]; 370 nM in experiment [4]; 30 nM in experiment [5]; 240 nM in experiment [6]; 410 nM in experiment [7].
As for `CNC(=O)N1N=C(c2ccc(N3CCN(C(C)=O)CC3)cc2)c2cc(OC)c(OC)cc2CC1C` (racemic) [Example 132, (±)-1-[4-(4-acetylpiperazin-1-yl)phenyl]-7,8-dimethoxy-N,4-dimethyl-4,5-dihydro-3H-2,3-benzodiazepine-3-carboxamide], the 50% inhibitory concentration (IC50) stood at 130 nM in experiment [1]; 110 nM in experiment [2]; 120 nM in experiment [3]; 320 nM in experiment [4]; 30 nM in experiment [5]; 200 nM in experiment [6]. For the same compound, the concentration for half-maximal inhibition (IC50) in experiment [7] stood at 420 nM.
Regarding `CNC(=O)N1N=C(c2ccc(N3CCOCC3)cc2)c2cc(OC)c(OC)cc2C[C@@H]1C` [Example 7.2, (4S)-7,8-dimethoxy-N,4-dimethyl-1-[4-(morpholin-4-yl)phenyl]-4,5-dihydro-3H-2,3-benzodiazepine-3-carboxamide], the IC50 came to 60 nM in experiment [1]; 50 nM in experiment [2]; 50 nM in experiment [3]; 30 nM in experiment [5]; 100 nM in experiment [6]; 190 nM in experiment [7].
For the compound `CNC(=O)N1N=C(c2ccc(Cl)cc2)c2cc(OCc3cccc(C)n3)ccc2CC1C` (racemic) [Example 167], the IC50 stood at 2950 nM in experiment [3], 310 nM in experiment [5] and 3240 nM in experiment [6].
For `CNC(=O)N1N=C(c2ccc(-c3sc(C)nc3C)cc2)c2cc(OC)c(OC)cc2C[C@H]1C` (single isomer, unassigned) [Example 46.2] the same measures were 9470 nM, 1160 nM and above 10000 nM.
With `CNC(=O)N1N=C(c2ccc(N3CCC3)cc2)c2cc(OC)c(OC)cc2CC1C` (racemic) [Example 128, (±)-1-[4-(azetidin-1-yl)phenyl]-7,8-dimethoxy-N,4-dimethyl-4,5-dihydro-3H-2,3-benzodiazepine-3-carboxamide], the concentration for half-maximal inhibition (IC50) in experiment [2] was 100 nM; in experiment [3], 100 nM; in experiment [4], 320 nM; in experiment [5], 30 nM; in experiment [6], 230 nM; in experiment [7], 390 nM.
Consider `CNC(=O)N1N=C(c2ccc(N3CC(F)C3)cc2)c2cc(OC)c(OC)cc2C[C@@H]1C` [Example 129.2, (4S)-1-[4-(3-fluoroazetidin-1-yl)phenyl]-7,8-dimethoxy-N,4-dimethyl-4,5-dihydro-3H-2,3-benzodiazepine-3-carboxamide], for which the IC50 is 80 nM in experiment [3], 20 nM in experiment [5] and 150 nM in experiment [6].
For `CNC(=O)N1N=C(c2ccc(-c3cncc(F)c3)cc2)c2cc(OC)c(OC)cc2CC1C` (racemic) [Example 122, (±)-1-[4-(5-fluoropyridin-3-yl)phenyl]-7,8-dimethoxy-N,4-dimethyl-4,5-dihydro-3H-2,3-benzodiazepine-3-carboxamide], the values for the half-inhibitory concentration (IC50) in experiment [5] and in experiment [6] were 60 nM and 660 nM, respectively.
For `CNC(=O)N1N=C(c2ccc(-c3ccccc3F)cc2)c2cc(OC)c(OC)cc2CC1C` (racemic) [Example 93, (±)-1-(2′-fluorobiphenyl-4-yl)-7,8-dimethoxy-N,4-dimethyl-4,5-dihydro-3H-2,3-benzodiazepine-3-carboxamide] the same measures were 120 nM and 460 nM.
As for `CCc1cc(C2CC2)n(-c2ccc(C3=NN(C(=O)NC)[C@@H](C)Cc4ccc(OC)cc43)cc2)n1` [Example 25, (4S)-1-[4-(5-cyclopropyl-3-ethyl-1H-pyrazol-1-yl)phenyl]-8-methoxy-N,4-dimethyl-4,5-dihydro-3H-2,3-benzodiazepine-3-carboxamide], the values for the IC50 in experiment [5] and in experiment [6] were 160 nM and 740 nM, respectively.
With `CNC(=O)N1N=C(c2ccc(-c3ccccc3S(C)(=O)=O)cc2)c2cc(OC)c(OC)cc2CC1C` (racemic) [Example 69, (±)-7,8-dimethoxy-N,4-dimethyl-1-[2′-(methylsulphonyl)biphenyl-4-yl]-4,5-dihydro-3H-2,3-benzodiazepine-3-carboxamide], the concentration for half-maximal inhibition (IC50) was 130 nM in experiment [5] and 1210 nM in experiment [6].
For `CNC(=O)N1N=C(c2ccc(-c3ccc(C#N)cc3)cc2)c2cc(OC)c(OC)cc2CC1C` (racemic) [Example 106, (±)-1-(4′-cyanobiphenyl-4-yl)-7,8-dimethoxy-N,4-dimethyl-4,5-dihydro-3H-2,3-benzodiazepine-3-carboxamide] the same measures were 90 nM and 2550 nM.
